Patent US8791144B2, “Substituted N-phenyl-1-(4-Pyridinyl)-1H-pyrazol-3-amines” (Janssen Pharmaceutica NV, priority 2009, dated 2014)

Experiments:
hα7-wt nAChR [1] = target: T1, hα7-wt nAChR (Homo sapiens, UniProt P36544); assay: Ca2+ flux imaging (FDSS): potentiation of the choline response; type: cell-based; conditions: Ca2+ assay as described in D.1, potentiation of choline response, hα7-wt nAChR; for EC50: read-out: Potency (pEC50) (converted)
How it was run: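 Cells expressing human α7-wt nAChR loaded with fluo-4AM (2 μM final) up to 120 min; HBSS/10 mM HEPES/5 mM CaCl2/0.1% BSA buffer. Compound (0.01–30 μM) applied up to 10 min before 100 μM choline; peak fluorescence measured on FDSS relative to choline alone (100%). EC50 from sigmoidal curves.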

hα7-wt nAChR [2] = target: T1, hα7-wt nAChR; assay: Patch-clamp current recording (whole-cell voltage clamp), potentiation of choline current and PAM type; type: cell-based; set-up: key: Type 0 compounds minimally enhance the effect size of the current elicited by 1 mM choline.; Type 1 compounds enhance the effect size of the current elicited by 1 mM choline but minimally alter the kinetics of the receptor.; Type 2 compounds enhance the effect size of the current elicited by 1 mM choline while reducing the rate and/or the extent of desensitization.; Type 3 compounds enhance the effect size of the current elicited by 1 mM choline. When tested at higher concentrations up to 10 μM they completely inhibit desensitization, in particular a 1 mM choline application of 250 milliseconds.; Type 4 compounds allow for an initial desensitization of the receptor followed by a re-opening of the receptor during agonist application; conditions: hα7-wt nAChR-expressing GH4C1 cells, 1 mM choline
Method: The compounds of the present invention are classified as type 0-4, based on qualitative kinetic properties, as determined by whole-cell voltage-clamp recordings. This classification is based on the effect of an α7 PAM compound, as described hereinbefore, on the signal elicited by an agonist application. In particular, said agonist is choline at a concentration of 1 mM. In a preferred experimental setting, said α7 PAM compound and choline are simultaneously applied to the cell, as described hereinafter. Desensitization is defined as the closure of the receptor upon activation during the application of the agonist in whole-cell voltage-clamp electrophysiology measurements seen as the reduction of the […] current after initial activation by the agonist.
The definition of the PAM types 0-4 is described hereinafter: • Type 0 compounds minimally enhance the effect size of the current elicited by 1 mM choline. • Type 1 compounds enhance the effect size of the current elicited by 1 mM choline but minimally alter the kinetics of the receptor. In particular, the rate and the extent of desensitization, elicited by the agonist, is not affected. The compound-modulated response to 1 mM choline, therefore, is a close to linear scaling of the 1 mM choline response in absence of the α7 PAM compound. • Type 2 compounds enhance the effect size of the current elicited by 1 mM choline while reducing the rate and/or the extent of desensitization. • Type 3 compounds enhance the effect size of the current elicited by 1 mM choline. […] At low-potency concentrations of the α7 PAM compound, the agonist-induced activation, which is followed by desensitization, can still be separated from the compound-induced re-opening as an initial inward current-maximum. At higher potency concentrations of the α7 PAM compound, the re-opening occurs faster than the closure due to desensitization so that the initial current-maximum disappears.
A compound was considered to have interesting PAM-like activity when the potentiation of the peak current was at least 200% compared to the control choline response (=100%). Such compounds are classified as belonging to a particular PAM type in the Experimental Part. Compounds not meeting the condition are not classified as belonging to a particular PAM-type.
The compounds also have a potentiating effect on the response to choline when measured by whole-cell patch clamp electrophysiology in GH4C1 cells stably over-expressing the human wild-type α7 receptor.
Patch-clamp recording from mammalian cells has provided a powerful means of assessing the function of membrane-bound proteins thought to be subunits of ligand-gated ion channels. Activation of such proteins by endogenous or exogenous ligands cause opening of a pore associated with the receptor through which ions flow down their electrochemical gradient. In the case of the hα7-wt nAChR-expressing GH4C1 recombinant cell line the preferential permeability to calcium of this receptor means that calcium flows into the cell upon activation by ACh, choline and other nicotinic ligands giving rise to a calcium current. Since this receptor rapidly desensitizes in the presence of agonist it is important an application system is used which is capable of very rapid switching of solutions (<100 ms) to prevent partial or full desensitisation of receptor responses coincident with the time of agonist application. Consequently, a second convenient technique to assess the enhancement of nicotinic efficacy is patch-clamp recording from hα7-wt nAChR-expressing GH4C1 cells coupled with a rapid-application system.
• a) Assay Buffers • The external recording solution consisted of 152 mM NaCl, 5 mM KCl, 1 mM MgCl2, 1 mM Calcium, 10 mM HEPES; pH 7.3. […]

T1 sequence (P36544 23-502): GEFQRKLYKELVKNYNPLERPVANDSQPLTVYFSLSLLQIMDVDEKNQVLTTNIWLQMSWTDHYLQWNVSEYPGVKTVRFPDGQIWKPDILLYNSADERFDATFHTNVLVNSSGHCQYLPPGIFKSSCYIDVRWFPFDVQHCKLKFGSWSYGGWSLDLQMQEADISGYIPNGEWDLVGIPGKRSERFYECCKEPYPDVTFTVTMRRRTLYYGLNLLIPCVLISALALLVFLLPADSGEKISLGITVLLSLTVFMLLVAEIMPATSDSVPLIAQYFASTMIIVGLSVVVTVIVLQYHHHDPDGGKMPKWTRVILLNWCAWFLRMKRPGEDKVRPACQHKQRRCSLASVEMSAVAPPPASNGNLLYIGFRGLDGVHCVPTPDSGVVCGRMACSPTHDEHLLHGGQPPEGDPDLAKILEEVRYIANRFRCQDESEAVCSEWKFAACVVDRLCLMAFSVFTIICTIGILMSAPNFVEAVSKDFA

In the case of `CCNC(=O)Cc1cc(Nc2cccc(Cl)c2F)nn1-c1ccnc(C)c1` [Compound 73, 3-[(3-chloro-2-fluorophenyl)amino]-N-ethyl-1-(2-methyl-4-pyridinyl)-1H-pyrazole-5-acetamide], the EC50 (hα7-wt nAChR [1]) was 1260 nM, the PAM type (hα7-wt nAChR [2]) was 3 and the melting point was 205.1 °C.

For `CCNC(=O)Cc1cc(Nc2cc(Cl)cc(OC)c2)nn1-c1ccnc(C)c1` [Compound 74, 3-[(3-chloro-5-methoxyphenyl)amino]-N-ethyl-1-(2-methyl-4-pyridinyl)-1H-pyrazole-5-acetamide], the EC50 (hα7-wt nAChR [1]) was 776 nM, the PAM type (hα7-wt nAChR [2]) was 4 and the melting point was 224 °C.

With `Cc1cc(-n2nc(Nc3cccc(Cl)c3F)cc2CC(=O)NC2CC2)ccn1` [Compound 76, 3-[(3-chloro-2-fluorophenyl)amino]-N-cyclopropyl-1-(2-methyl-4-pyridinyl)-1H-pyrazole-5-acetamide] the EC50 (hα7-wt nAChR [1]) was 1100 nM, the PAM type (hα7-wt nAChR [2]) was 3 and the melting point was 192.6 °C.

`Cc1cc(-n2nc(Nc3cccc(Cl)c3F)cc2CC(=O)NC2CC2)cc(C)n1` [Compound 78, 3-[(3-chloro-2-fluorophenyl)amino]-N-cyclopropyl-1-(2,6-dimethyl-4-pyridinyl)-1H-pyrazole-5-acetamide] showed an EC50 (hα7-wt nAChR [1]) of 407 nM, a PAM type (hα7-wt nAChR [2]) of 2 and a melting point of 222.9 °C.

`Cc1cc(-n2nc(Nc3cccc(Cl)c3F)cc2CC(=O)NCC2CC2)ccn1` [Compound 79, 3-[(3-chloro-2-fluorophenyl)amino]-N-(cyclopropylmethyl)-1-(2-methyl-4-pyridinyl)-1H-pyrazole-5-acetamide] gave an EC50 (hα7-wt nAChR [1]) of 302 nM, a PAM type (hα7-wt nAChR [2]) of 4 and a melting point of 220.5 °C.

For `Cc1cc(-n2nc(Nc3cccc(Cl)c3F)cc2CC(=O)NCC2CC2)cc(C)n1` [Compound 80, 3-[(3-chloro-2-fluorophenyl)amino]-N-(cyclopropylmethyl)-1-(2,6-dimethyl-4-pyridinyl)-1H-pyrazole-5-acetamide], the EC50 (hα7-wt nAChR [1]) was 95.5 nM, the PAM type (hα7-wt nAChR [2]) was 2 and the melting point was 210.4 °C.

With `COc1cc(Cl)cc(Nc2cc(CC(=O)NCC3CC3)n(-c3ccnc(C)c3)n2)c1` [Compound 81, 3-[(3-chloro-5-methoxyphenyl)amino]-N-(cyclopropylmethyl)-1-(2-methyl-4-pyridinyl)-1H-pyrazole-5-acetamide] the EC50 (hα7-wt nAChR [1]) was 148 nM, the PAM type (hα7-wt nAChR [2]) was 0 and the melting point was 248.7 °C.

Work on `Cc1cc(-n2nc(Nc3cccc(Cl)c3F)cc2CC(=O)NC2CCC2)ccn1` [Compound 82, 3-[(3-chloro-2-fluorophenyl)amino]-N-cyclobutyl-1-(2-methyl-4-pyridinyl)-1H-pyrazole-5-acetamide] yielded an EC50 (hα7-wt nAChR [1]) of 490 nM, a PAM type (hα7-wt nAChR [2]) of 2 and a melting point of 223.2 °C.

For `COc1cc(Cl)cc(Nc2cc(CC(=O)NC3CCC3)n(-c3ccnc(C)c3)n2)c1` [Compound 83, 3-[(3-chloro-5-methoxyphenyl)amino]-N-cyclobutyl-1-(2-methyl-4-pyridinyl)-1H-pyrazole-5-acetamide], the EC50 (hα7-wt nAChR [1]) was 145 nM, the PAM type (hα7-wt nAChR [2]) was 4 and the melting point was 236.4 °C.

Molecule `Cc1cc(-n2nc(Nc3ccc4c(c3)OC(F)(F)O4)cc2CCCO)ccn1` [Compound 92, 3-[(2,2-difluoro-1,3-benzodioxol-5-yl)amino]-1-(2-methyl-4-pyridinyl)-1H-pyrazole-5-propanol] has an EC50 (hα7-wt nAChR [1]) of 2340 nM, a PAM type (hα7-wt nAChR [2]) of 2 and a melting point of 163.3 °C.

`CC[C@H](O)Cc1cc(Nc2ccc3c(c2)OC(F)(F)O3)nn1-c1ccnc(C)c1` [Compound 93, (alphaS)-3-[(2,2-difluoro-1,3-benzodioxol-5-yl)amino]-alpha-ethyl-1-(2-methyl-4-pyridinyl)-1H-pyrazole-5-ethanol] showed an EC50 (hα7-wt nAChR [1]) of 1700 nM, a PAM type (hα7-wt nAChR [2]) of 2 and a melting point of 138.3 °C.

Molecule `CCNC(=O)Cc1cc(Nc2ccc3c(c2)OC(F)(F)O3)nn1-c1ccnc(C)c1` [Compound 98, 3-[(2,2-difluoro-1,3-benzodioxol-5-yl)amino]-N-ethyl-1-(2-methyl-4-pyridinyl)-1H-pyrazole-5-acetamide] has an EC50 (hα7-wt nAChR [1]) of 1200 nM, a PAM type (hα7-wt nAChR [2]) of 2 and a melting point of 239.2 °C.

Work on `Cc1cc(-n2nc(Nc3ccc4c(c3)OC(F)(F)O4)cc2CCC(=O)N(C)C)ccn1` [Compound 99, 3-[(2,2-difluoro-1,3-benzodioxol-5-yl)amino]-N,N-dimethyl-1-(2-methyl-4-pyridinyl)-1H-pyrazole-5-propanamide] yielded an EC50 (hα7-wt nAChR [1]) of 490 nM, a PAM type (hα7-wt nAChR [2]) of 4 and a melting point of 132 °C.

Molecule `Cc1cc(-n2nc(Nc3ccc4c(c3)OC(F)(F)O4)cc2CC(=O)NC2CC2)ccn1` [Compound 100, N-cyclopropyl-3-[(2,2-difluoro-1,3-benzodioxol-5-yl)amino]-1-(2-methyl-4-pyridinyl)-1H-pyrazole-5-acetamide] has an EC50 (hα7-wt nAChR [1]) of 1260 nM, a PAM type (hα7-wt nAChR [2]) of 2 and a melting point of 248.9 °C.

In the case of `Cc1cc(-n2nc(Nc3ccc4c(c3)OC(F)(F)O4)cc2CC(=O)NCC2CC2)ccn1` [Compound 101, N-(cyclopropylmethyl)-3-[(2,2-difluoro-1,3-benzodioxol-5-yl)amino]-1-(2-methyl-4-pyridinyl)-1H-pyrazole-5-acetamide], the EC50 (hα7-wt nAChR [1]) was 603 nM, the PAM type (hα7-wt nAChR [2]) was 2 and the melting point was 232.3 °C.

Work on `Cc1cc(-n2nc(Nc3ccc4c(c3)OC(F)(F)O4)cc2CC(=O)NC2CCC2)ccn1` [Compound 102, N-cyclobutyl-3-[(2,2-difluoro-1,3-benzodioxol-5-yl)amino]-1-(2-methyl-4-pyridinyl)-1H-pyrazole-5-acetamide] yielded an EC50 (hα7-wt nAChR [1]) of 240 nM, a PAM type (hα7-wt nAChR [2]) of 2 and a melting point of 237.7 °C.

`CC[C@H](O)Cc1cc(Nc2cccc(OC(F)(F)F)c2)nn1-c1ccnc(C)c1` [Compound 106, (alphaS)-alpha-ethyl-1-(2-methyl-4-pyridinyl)-3-[[3-(trifluoromethoxy)phenyl]amino]-1H-pyrazole-5-ethanol] gave an EC50 (hα7-wt nAChR [1]) of 1820 nM, a PAM type (hα7-wt nAChR [2]) of 2 and a melting point of 147.3 °C.

Molecule `CNC(=O)Cc1cc(Nc2cccc(OC(F)(F)F)c2)nn1-c1ccnc(C)c1` [Compound 111, N-methyl-1-(2-methyl-4-pyridinyl)-3-[[3-(trifluoromethoxy)phenyl]amino]-1H-pyrazole-5-acetamide] has an Emax (hα7-wt nAChR [1]; read-out: % Efficacy) of 822%, an EC50 (hα7-wt nAChR [1]) of 2290 nM and a PAM type (hα7-wt nAChR [2]) of 2. The melting point was 231.5 °C.

For `CNC(=O)Cc1cc(Nc2cccc(OC(F)(F)F)c2)nn1-c1cc(C)nc(C)c1` [Compound 112, 1-(2,6-dimethyl-4-pyridinyl)-N-methyl-3-[[3-(trifluoromethoxy)phenyl]amino]-1H-pyrazole-5-acetamide], the EC50 (hα7-wt nAChR [1]) was 1290 nM, the PAM type (hα7-wt nAChR [2]) was 2 and the melting point was 222 °C.

With `CCNC(=O)Cc1cc(Nc2cccc(OC(F)(F)F)c2)nn1-c1ccnc(C)c1` [Compound 113, N-ethyl-1-(2-methyl-4-pyridinyl)-3-[[3-(trifluoromethoxy)phenyl]amino]-1H-pyrazole-5-acetamide] the EC50 (hα7-wt nAChR [1]) was 1150 nM, the PAM type (hα7-wt nAChR [2]) was 3 and the melting point was 210.3 °C.
